Patent US20190282501A1, “HYDROALCOHOLIC FOAM FORMULATIONS OF NAFTIFINE” (priority 2016, published 2019)
Counter-ions that a name gives are not always drawn. Like-named read-outs stand apart in the source and are kept apart here.

Tests used:
[1] = Experimental: To generate a foam composition that is capable of maintaining the high solubility of naftifine HCl without needing to add in surfactants, the solubility of the API with various excipients was tested. Naftifine hydrochloride was combined with different solvents to identify which solvents are able to solubilize the API. The objective of this study was to determine which solvents can be useful in the development of formulations where the API is soluble. The objective of this study was not to determine the maximal solubility of the API in the tested solvents.
To prepare the mixtures, the API was added at a 1% w/w concentration to each solvent at room temperature under mixing. Solubility at room temperature was then assessed after 24 hours by determining the presence of API crystals using microscopic observation at ×200 magnification under polarized light. The mixture was then heated to about 80° C. for 10 minutes and mixed. Solubility at 80° C. was assessed by visual observation. The mixture was then cooled to room temperature and solubility was assessed after 24 hours by determining the presence of API crystals using microscopic evaluation at ×200 magnification under polarized light.
The first column in Table 5 relates to the solubility at room temperature before heating to 80° C. The second column relates to the solubility at 80° C. as observed visually. The third column relates to the solubility after the mixture has been heated to 80° C. and cooled down to room temperature.

[2] = after 3m and after 6m at 25° C., 30° C. and 40° C.; stated below Table 6B (Formulation D)
Experimental: The amount of active agent present is analyzed in foam expelled from various pressurized canisters containing foam formulations using HPLC. Analysis is carried out at zero time and at appropriate time intervals thereafter. The canisters are stored in controlled temperature incubators at one or more of 5° C., at 25° C., at, 40° C. and at 50° C. At appropriate time intervals canisters are removed and the amount of active agent in the foam sample is measured.

[3] = in Capric caprylic triglycerides

CN(C/C=C/c1ccccc1)Cc1cccc2ccccc12 [naftifine hydrochloride, (E)-N-methyl-N-(1-naphthyl-methyl)-3-phenyl-2-propen-l-amine hydrochloride]
Dissolution in hydrophobic solvents ([1]; hydrophobic solvents, even under heating): did not dissolve | Max. Solubility at RT after heating at 80° C. [1, 3]: <1% | Maximum Solubility at 80° C. [1, 3]: <1% | Maximum Solubility at RT [1, 3]: <1% | Max. Solubility at RT after heating at 80° C. ([1]; in Castor oil): <1% | Maximum Solubility at 80° C. ([1]; in Castor oil): <1% | Maximum Solubility at RT ([1]; in Castor oil): <1% | Max. Solubility at RT after heating at 80° C. ([1]; in Cyclomethicone): <1% | Maximum Solubility at 80° C. ([1]; in Cyclomethicone): <1% | Maximum Solubility at RT ([1]; in Cyclomethicone): <1% | Max. Solubility at RT after heating at 80° C. ([1]; in Diethyl sebacate): <1% | Maximum Solubility at 80° C. ([1]; in Diethyl sebacate): <1% | Maximum Solubility at RT ([1]; in Diethyl sebacate): <1% | Max. Solubility at RT after heating at 80° C. ([1]; in Diisopropyl adipate): <1% | Maximum Solubility at 80° C. ([1]; in Diisopropyl adipate): <1% | Maximum Solubility at RT ([1]; in Diisopropyl adipate): <1% | Max. Solubility at RT after heating at 80° C. ([1]; in Dimethyl isosorbide): <1% | Maximum Solubility at 80° C. ([1]; in Dimethyl isosorbide): <1% | Maximum Solubility at RT ([1]; in Dimethyl isosorbide): <1% | Max. Solubility at RT after heating at 80° C. ([1]; in Dimethyl sulfoxide): >8% | Maximum Solubility at 80° C. ([1]; in Dimethyl sulfoxide): >8% | Maximum Solubility at RT ([1]; in Dimethyl sulfoxide): ~2% | Maximum Solubility at 80° C. ([1]; in Ethanol 95%): >8% | Maximum Solubility at RT ([1]; in Ethanol 95%): ~4% | Max. Solubility at RT after heating at 80° C. ([1]; in Ethanol 95%, hydrochloride): >8% | Max. Solubility at RT after heating at 80° C. ([1]; in Ethanol 95%, listed as naftifine HCl, hydrochloride): higher than 8% | Max. Solubility at RT after heating at 80° C. ([1]; in Glycerin): ~1% | Maximum Solubility at 80° C. ([1]; in Glycerin): ~1% | Maximum Solubility at RT ([1]; in Glycerin): <1% | Max. Solubility at RT after heating at 80° C. ([1]; in Glycofurol): ~1% | Maximum Solubility at 80° C. ([1]; in Glycofurol): ~1% | Maximum Solubility at RT ([1]; in Glycofurol): <1% | Max. Solubility at RT after heating at 80° C. ([1]; in Hexylene glycol): ~1% | Maximum Solubility at 80° C. ([1]; in Hexylene glycol): ~1% | Maximum Solubility at RT ([1]; in Hexylene glycol): <1% | Max. Solubility at RT after heating at 80° C. ([1]; in Isopropyl alcohol): ~2% | Maximum Solubility at 80° C. ([1]; in Isopropyl alcohol): ~2% | Maximum Solubility at RT ([1]; in Isopropyl alcohol): <1% | Max. Solubility at RT after heating at 80° C. ([1]; in Isopropyl myristate): <1% | Maximum Solubility at 80° C. ([1]; in Isopropyl myristate): <1% | Maximum Solubility at RT ([1]; in Isopropyl myristate): <1% | Max. Solubility at RT after heating at 80° C. ([1]; in Isostearic acid): <1% | Maximum Solubility at 80° C. ([1]; in Isostearic acid): <1% | Maximum Solubility at RT ([1]; in Isostearic acid): <1% | Max. Solubility at RT after heating at 80° C. ([1]; in Mineral oil light): <1% | Maximum Solubility at 80° C. ([1]; in Mineral oil light): <1% | Maximum Solubility at RT ([1]; in Mineral oil light): <1% | Max. Solubility at RT after heating at 80° C. ([1]; in Octyldodecanol): <1% | Maximum Solubility at 80° C. ([1]; in Octyldodecanol): <1% | Maximum Solubility at RT ([1]; in Octyldodecanol): <1% | Max. Solubility at RT after heating at 80° C. ([1]; in Oleic acid): <1% | Maximum Solubility at 80° C. ([1]; in Oleic acid): <1% | Maximum Solubility at RT ([1]; in Oleic acid): <1% | Max. Solubility at RT after heating at 80° C. ([1]; in Oleyl alcohol): <1% | Maximum Solubility at 80° C. ([1]; in Oleyl alcohol): <1% | Maximum Solubility at RT ([1]; in Oleyl alcohol): <1% | Max. Solubility at RT after heating at 80° C. ([1]; in Olive oil): <1% | Maximum Solubility at 80° C. ([1]; in Olive oil): <1% | Maximum Solubility at RT ([1]; in Olive oil): <1% | Max. Solubility at RT after heating at 80° C. ([1]; in PPG-15 stearyl ether): <1% | Maximum Solubility at 80° C. ([1]; in PPG-15 stearyl ether): <1% | Maximum Solubility at RT ([1]; in PPG-15 stearyl ether): <1% | Max. Solubility at RT after heating at 80° C. ([1]; in Polyethylene glycol 200): ~3% | Maximum Solubility at 80° C. ([1]; in Polyethylene glycol 200): ~6% | Maximum Solubility at RT ([1]; in Polyethylene glycol 200): <1% | Max. Solubility at RT after heating at 80° C. ([1]; in Polyethylene glycol 400): <1% | Maximum Solubility at 80° C. ([1]; in Polyethylene glycol 400): <1% | Maximum Solubility at RT ([1]; in Polyethylene glycol 400): <1% | Max. Solubility at RT after heating at 80° C. ([1]; in Propylene glycol): >8% | Maximum Solubility at 80° C. ([1]; in Propylene glycol): >8% | Maximum Solubility at RT ([1]; in Propylene glycol): <1% | Max. Solubility at RT after heating at 80° C. ([1]; in Sodium pyroglutamic acid): <1% | Maximum Solubility at 80° C. ([1]; in Sodium pyroglutamic acid): <1% | Maximum Solubility at RT ([1]; in Sodium pyroglutamic acid): <1% | Max. Solubility at RT after heating at 80° C. ([1]; in Soybean oil): <1% | Maximum Solubility at 80° C. ([1]; in Soybean oil): <1% | Maximum Solubility at RT ([1]; in Soybean oil): <1% | Max. Solubility at RT after heating at 80° C. ([1]; in Transcutol): ~2% | Maximum Solubility at 80° C. ([1]; in Transcutol): ~2% | Maximum Solubility at RT ([1]; in Transcutol): <1% | Max. Solubility at RT after heating at 80° C. ([1]; in Water): ~1% | Maximum Solubility at 80° C. ([1]; in Water): ~1% | Maximum Solubility at RT ([1]; in Water): <1% | Dissolution in hydrophilic solvents ([1]; propylene glycol (after heating), ethanol, dimethyl sulfoxide and polyethylene glycol 200 (after heating)): dissolved well | Stability of naftifine [2]: stable
